# Tests used:
# Assay type in all cases: functional
# Ostrinia nubilalis [1] = assay: Effect on growth of female Ostrinia nubilalis (European corn borer) larvae assessed as larval duration at 0.10% of diet dry weight after 6 days relative to control
# Ostrinia nubilalis [2] = assay: Effect on growth of male Ostrinia nubilalis (European corn borer) larvae assessed as pupal duration at 0.01% of diet dry weight after 6 days relative to control
# Ostrinia nubilalis [3] = assay: Antifeedant activity against Ostrinia nubilalis (European corn borer) larvae assessed as amount excreted at 0.20% of diet dry weight after 5 days relative to control
# Ostrinia nubilalis [4] = assay: Antifeedant activity against Ostrinia nubilalis (European corn borer) larvae assessed as growth rate at 0.40% of diet dry weight after 5 days relative to control
# Ostrinia nubilalis [5] = assay: Effect on growth of female Ostrinia nubilalis (European corn borer) larvae assessed as pupal weight at 1% of diet dry weight after 6 days relative to control
# Ostrinia nubilalis [6] = assay: Effect on growth of male Ostrinia nubilalis (European corn borer) larvae assessed as larval duration at 0.001% of diet dry weight after 6 days relative to control
# Ostrinia nubilalis [7] = assay: Antifeedant activity against Ostrinia nubilalis (European corn borer) larvae assessed as amount of weight gain by the insect at 0.10% of diet dry weight after 5 days relative to control
# Ostrinia nubilalis [8] = assay: Effect on growth of male Ostrinia nubilalis (European corn borer) larvae assessed as larval duration at 0.01% of diet dry weight after 6 days relative to control
# Ostrinia nubilalis [9] = assay: Effect on growth of female Ostrinia nubilalis (European corn borer) larvae assessed as pupal duration at 0.10% of diet dry weight after 6 days relative to control
# Ostrinia nubilalis [10] = assay: Effect on growth of female Ostrinia nubilalis (European corn borer) larvae assessed as adult emergence at 0.001% of diet dry weight after 6 days relative to control
# Ostrinia nubilalis [11] = assay: Effect on growth of male Ostrinia nubilalis (European corn borer) larvae assessed as larval duration at 1% of diet dry weight after 6 days relative to control
# Ostrinia nubilalis [12] = assay: Antifeedant activity against Ostrinia nubilalis (European corn borer) larvae assessed as excretion rate at 0.40% of diet dry weight after 5 days relative to control
# Ostrinia nubilalis [13] = assay: Effect on growth of female Ostrinia nubilalis (European corn borer) larvae assessed as adult emergence at 0.01% of diet dry weight after 6 days relative to control
# Ostrinia nubilalis [14] = assay: Effect on growth of male Ostrinia nubilalis (European corn borer) larvae assessed as pupal duration at 0.001% of diet dry weight after 6 days relative to control
# Ostrinia nubilalis [15] = assay: Effect on growth of male Ostrinia nubilalis (European corn borer) larvae assessed as pupal weight at 0.01% of diet dry weight after 6 days relative to control
# Ostrinia nubilalis [16] = assay: Antifeedant activity against Ostrinia nubilalis (European corn borer) larvae assessed as feeding rate at 0.60% of diet dry weight after 5 days relative to control
# Ostrinia nubilalis [17] = assay: Effect on growth of male Ostrinia nubilalis (European corn borer) larvae assessed as larval duration at 0.10% of diet dry weight after 6 days relative to control
# Ostrinia nubilalis [18] = assay: Effect on growth of female Ostrinia nubilalis (European corn borer) larvae assessed as pupal duration at 0.01% of diet dry weight after 6 days relative to control
# Ostrinia nubilalis [19] = assay: Antifeedant activity against Ostrinia nubilalis (European corn borer) larvae assessed as amount excreted at 0.60% of diet dry weight after 5 days relative to control
# Ostrinia nubilalis [20] = assay: Effect on growth of female Ostrinia nubilalis (European corn borer) larvae assessed as pupal weight at 0.01% of diet dry weight after 6 days relative to control
# Ostrinia nubilalis [21] = assay: Effect on growth of male Ostrinia nubilalis (European corn borer) larvae assessed as pupal duration at 0.10% of diet dry weight after 6 days relative to control
# Ostrinia nubilalis [22] = assay: Effect on growth of female Ostrinia nubilalis (European corn borer) larvae assessed as larval duration at 0.01% of diet dry weight after 6 days relative to control
# Ostrinia nubilalis [23] = assay: Antifeedant activity against Ostrinia nubilalis (European corn borer) larvae assessed as amount of food consumed at 0.40% of diet dry weight after 5 days relative to control
# Ostrinia nubilalis [24] = assay: Effect on growth of male Ostrinia nubilalis (European corn borer) larvae assessed as pupal weight at 0.10% of diet dry weight after 6 days relative to control
# Ostrinia nubilalis [25] = assay: Antifeedant activity against Ostrinia nubilalis (European corn borer) larvae assessed as growth rate at 0.20% of diet dry weight after 5 days relative to control
# Ostrinia nubilalis [26] = assay: Effect on growth of female Ostrinia nubilalis (European corn borer) larvae assessed as pupal weight at 0.10% of diet dry weight after 6 days relative to control
# Ostrinia nubilalis [27] = assay: Effect on growth of male Ostrinia nubilalis (European corn borer) larvae assessed as pupal weight at 1% of diet dry weight after 6 days relative to control
# Ostrinia nubilalis [28] = assay: Antifeedant activity against Ostrinia nubilalis (European corn borer) larvae assessed as amount excreted at 0.40% of diet dry weight after 5 days relative to control
# Ostrinia nubilalis [29] = assay: Effect on growth of female Ostrinia nubilalis (European corn borer) larvae assessed as pupal duration at 0.001% of diet dry weight after 6 days relative to control
# Ostrinia nubilalis [30] = assay: Effect on growth of male Ostrinia nubilalis (European corn borer) larvae assessed as adult emergence at 0.10% of diet dry weight after 6 days relative to control
# Ostrinia nubilalis [31] = assay: Effect on growth of male Ostrinia nubilalis (European corn borer) larvae assessed as pupal weight at 0.001% of diet dry weight after 6 days relative to control
# Ostrinia nubilalis [32] = assay: Insecticidal activity against Ostrinia nubilalis (European corn borer) larvae assessed as mortality at 0.10 to 0.80% of diet dry weight after 5 days relative to control
# Ostrinia nubilalis [33] = assay: Effect on growth of female Ostrinia nubilalis (European corn borer) larvae assessed as pupal weight at 0.001% of diet dry weight after 6 days relative to control
# Ostrinia nubilalis [34] = assay: Antifeedant activity against Ostrinia nubilalis (European corn borer) larvae assessed as amount of weight gain by the insect at 0.40% of diet dry weight after 5 days relative to control
# Ostrinia nubilalis [35] = assay: Effect on growth of female Ostrinia nubilalis (European corn borer) larvae assessed as larval duration at 0.001% of diet dry weight after 6 days relative to control
# Ostrinia nubilalis [36] = assay: Antifeedant activity against Ostrinia nubilalis (European corn borer) larvae assessed as growth rate at 0.10% of diet dry weight after 5 days relative to control
# Ostrinia nubilalis [37] = assay: Antifeedant activity against Ostrinia nubilalis (European corn borer) larvae assessed as feeding rate at 0.40% of diet dry weight after 5 days relative to control
# Ostrinia nubilalis [38] = assay: Antifeedant activity against Ostrinia nubilalis (European corn borer) larvae assessed as amount of weight gain by the insect at 0.20% of diet dry weight after 5 days relative to control
# Ostrinia nubilalis [39] = assay: Antifeedant activity against Ostrinia nubilalis (European corn borer) larvae assessed as amount of weight gain by the insect at 0.80% of diet dry weight after 5 days relative to control
# Ostrinia nubilalis [40] = assay: Antifeedant activity against Ostrinia nubilalis (European corn borer) larvae assessed as amount of food consumed at 0.80% of diet dry weight after 5 days relative to control
# Ostrinia nubilalis [41] = assay: Antifeedant activity against Ostrinia nubilalis (European corn borer) larvae assessed as excretion rate at 0.80% of diet dry weight after 5 days relative to control
# Ostrinia nubilalis [42] = assay: Effect on growth of female Ostrinia nubilalis (European corn borer) larvae assessed as larval duration at 1% of diet dry weight after 6 days relative to control
# Ostrinia nubilalis [43] = assay: Antifeedant activity against Ostrinia nubilalis (European corn borer) larvae assessed as amount excreted at 0.80% of diet dry weight after 5 days relative to control
# Ostrinia nubilalis [44] = assay: Antifeedant activity against Ostrinia nubilalis (European corn borer) larvae assessed as amount of food consumed at 0.60% of diet dry weight after 5 days relative to control
# Ostrinia nubilalis [45] = assay: Effect on growth of male Ostrinia nubilalis (European corn borer) larvae assessed as pupal duration at 1% of diet dry weight after 6 days relative to control
# Ostrinia nubilalis [46] = assay: Antifeedant activity against Ostrinia nubilalis (European corn borer) larvae assessed as growth rate at 0.80% of diet dry weight after 5 days relative to control
# Ostrinia nubilalis [47] = assay: Antifeedant activity against Ostrinia nubilalis (European corn borer) larvae assessed as amount of food consumed at 0.20% of diet dry weight after 5 days relative to control
# Ostrinia nubilalis [48] = assay: Antifeedant activity against Ostrinia nubilalis (European corn borer) larvae assessed as feeding rate at 0.20% of diet dry weight after 5 days relative to control
# Ostrinia nubilalis [49] = assay: Effect on growth of female Ostrinia nubilalis (European corn borer) larvae assessed as adult emergence at 1% of diet dry weight after 6 days relative to control
# Ostrinia nubilalis [50] = assay: Effect on growth of male Ostrinia nubilalis (European corn borer) larvae assessed as adult emergence at 0.01% of diet dry weight after 6 days relative to control
# Ostrinia nubilalis [51] = assay: Effect on growth of male Ostrinia nubilalis (European corn borer) larvae assessed as adult emergence at 1% of diet dry weight after 6 days relative to control
# Ostrinia nubilalis [52] = assay: Effect on growth of male Ostrinia nubilalis (European corn borer) larvae assessed as adult emergence at 0.001% of diet dry weight after 6 days relative to control
# Ostrinia nubilalis [53] = assay: Antifeedant activity against Ostrinia nubilalis (European corn borer) larvae assessed as excretion rate at 0.20% of diet dry weight after 5 days relative to control
# Ostrinia nubilalis [54] = assay: Antifeedant activity against Ostrinia nubilalis (European corn borer) larvae assessed as amount of food consumed at 0.10% of diet dry weight after 5 days relative to control
# Ostrinia nubilalis [55] = assay: Antifeedant activity against Ostrinia nubilalis (European corn borer) larvae assessed as amount excreted at 0.10% of diet dry weight after 5 days relative to control
# Ostrinia nubilalis [56] = assay: Antifeedant activity against Ostrinia nubilalis (European corn borer) larvae assessed as amount of weight gain by the insect at 0.60% of diet dry weight after 5 days relative to control
# Ostrinia nubilalis [57] = assay: Effect on growth of female Ostrinia nubilalis (European corn borer) larvae assessed as pupal duration at 1% of diet dry weight after 6 days relative to control
# Ostrinia nubilalis [58] = assay: Antifeedant activity against Ostrinia nubilalis (European corn borer) larvae assessed as growth rate at 0.60% of diet dry weight after 5 days relative to control
# Ostrinia nubilalis [59] = assay: Antifeedant activity against Ostrinia nubilalis (European corn borer) larvae assessed as excretion rate at 0.60% of diet dry weight after 5 days relative to control
# Ostrinia nubilalis [60] = assay: Effect on growth of female Ostrinia nubilalis (European corn borer) larvae assessed as adult emergence at 0.10% of diet dry weight after 6 days relative to control
# Ostrinia nubilalis [61] = assay: Antifeedant activity against Ostrinia nubilalis (European corn borer) larvae assessed as excretion rate at 0.10% of diet dry weight after 5 days relative to control
# Ostrinia nubilalis [62] = assay: Antifeedant activity against Ostrinia nubilalis (European corn borer) larvae assessed as feeding rate at 0.10% of diet dry weight after 5 days relative to control
# Ostrinia nubilalis [63] = assay: Antifeedant activity against Ostrinia nubilalis (European corn borer) larvae assessed as feeding rate at 0.80% of diet dry weight after 5 days relative to control
smiles,measurement,setting,value
CC(C)=CCc1c2c(c3occ(-c4ccc(O)cc4)c(=O)c3c1O)C=CC(C)(C)O2 [OSAJIN],Time,Ostrinia nubilalis [1],11.8 days
same,Time,Ostrinia nubilalis [2],6.8 days
same,Activity,Ostrinia nubilalis [3],2.6%
same,Activity,Ostrinia nubilalis [4],4.7%
same,Activity,Ostrinia nubilalis [5],109 mg
same,Time,Ostrinia nubilalis [6],11.4 days
same,Activity,Ostrinia nubilalis [7],-2%
same,Time,Ostrinia nubilalis [8],11.4 days
same,Time,Ostrinia nubilalis [9],7.1 days
same,Activity,Ostrinia nubilalis [10],54%
same,Time,Ostrinia nubilalis [11],11.3 days
same,Activity,Ostrinia nubilalis [12],6.3%
same,Activity,Ostrinia nubilalis [13],44%
same,Time,Ostrinia nubilalis [14],7.2 days
same,Activity,Ostrinia nubilalis [15],75 mg
same,Activity,Ostrinia nubilalis [16],36%
same,Time,Ostrinia nubilalis [17],11.4 days
same,Time,Ostrinia nubilalis [18],6.3 days
same,Activity,Ostrinia nubilalis [19],10.8%
same,Activity,Ostrinia nubilalis [20],104 mg
same,Time,Ostrinia nubilalis [21],7.6 days
same,Time,Ostrinia nubilalis [22],12.6 days
same,Activity,Ostrinia nubilalis [23],30.5%
same,Activity,Ostrinia nubilalis [24],75 mg
same,Activity,Ostrinia nubilalis [25],-1%
same,Activity,Ostrinia nubilalis [26],102 mg
same,Activity,Ostrinia nubilalis [27],71 mg
same,Activity,Ostrinia nubilalis [28],17.6%
same,Time,Ostrinia nubilalis [29],6.5 days
same,Activity,Ostrinia nubilalis [30],71%
same,Activity,Ostrinia nubilalis [31],76 mg
same,mortality,Ostrinia nubilalis [32],<=7%
same,Activity,Ostrinia nubilalis [33],103 mg
same,Activity,Ostrinia nubilalis [34],17%
same,Time,Ostrinia nubilalis [35],11.7 days
same,Activity,Ostrinia nubilalis [36],-1%
same,Activity,Ostrinia nubilalis [37],23%
same,Activity,Ostrinia nubilalis [38],-3%
same,Activity,Ostrinia nubilalis [39],10.5%
same,Activity,Ostrinia nubilalis [40],27.7%
same,Activity,Ostrinia nubilalis [41],4%
same,Time,Ostrinia nubilalis [42],12.4 days
same,Activity,Ostrinia nubilalis [43],1.9%
same,Activity,Ostrinia nubilalis [44],36%
same,Time,Ostrinia nubilalis [45],7.3 days
same,Activity,Ostrinia nubilalis [46],3%
same,Activity,Ostrinia nubilalis [47],-12%
same,Activity,Ostrinia nubilalis [48],-8%
same,Activity,Ostrinia nubilalis [49],85%
same,Activity,Ostrinia nubilalis [50],50%
same,Activity,Ostrinia nubilalis [51],43%
same,Activity,Ostrinia nubilalis [52],71%
same,Activity,Ostrinia nubilalis [53],6%
same,Activity,Ostrinia nubilalis [54],-8%
same,Activity,Ostrinia nubilalis [55],-1.4%
same,Activity,Ostrinia nubilalis [56],7%
same,Time,Ostrinia nubilalis [57],6.4 days
same,Activity,Ostrinia nubilalis [58],1.7%
same,Activity,Ostrinia nubilalis [59],1.9%
same,Activity,Ostrinia nubilalis [60],50%
same,Activity,Ostrinia nubilalis [61],-1%
same,Activity,Ostrinia nubilalis [62],-7%
same,Activity,Ostrinia nubilalis [63],27.5%

# Reference: ChEMBL document CHEMBL3045511, “Effects of Two Isoflavonoids, Osajin and Pomiferin, from Maclura pomifera for Growth and Feeding Disruption in Ostrinia nubilalis” (2001)
